The values below come from US20230406803A1, “TROPOLONE DERIVATIVES AND TAUTOMERS THEREOF FOR IRON REGULATION IN ANIMALS” (Kinesid Therapeutics, Inc, priority 2020, published 2023).

What is called half-life is how long it takes for the measured level to halve. As usually defined, the microsomal CLint is the capacity of the preparation to metabolise the compound, expressed as a volume cleared per time. High values mean rapid turnover, low ones slow turnover. The term AUC(0-t) denotes exposure summed from dosing to a finite time, without extrapolation to infinity. By Cmax is commonly meant the highest concentration seen after dosing.

Data set [1] deals with mouse model of turpentine oil (TO)-induced anemia of inflammation. Kind of data set: Turpentine oil induced anemia of inflammation. The class given is in vivo. Conditions: PO, hinokitiol as comparator in the respective studies. The procedure: Assay 3: Turpentine Oil Induced Anemia of Inflammation This is a model of anemia of inflammation by turpentine oil injection in combination with phlebotomy. Conditioning: Mice receive 3 doses of turpentine oil subcutaneously within 2 weeks. Mice are anesthetized and then administered 0.1 mL/20 g body weight of turpentine oil (TO) via subcutaneous injection in the scapular fat area using syringe and 27 G needle on Day 1, 7, and 14. On day 14, after the final injection of turpentine oil, a controlled 10% hemorrhage (approximately 200 uL) is accomplished via anesthetized orbital sinus bleed to increase the magnitude of anemia. The bleeding uses an orbital blood sampling technique, 200 uL capillary bleeding device (essentially a vacutainer tube with a glass capillary tube attached). Clean gauze lightly pre-soaked with sterile saline is held over the eye immediately following hemorrhage to promote hemostasis. Treatment: On day 15, 16 hours post last dose of turpentine oil, sham group and TO plus bleeding group are terminated. These two groups are used as part of control. On day 15, vehicle group and compound treatment groups receive proper vehicle or compounds at a specified dose accordingly, treatments can be oral once a day or oral twice a day. The treatment continues for 7 days, and then is terminated on day 21. On day 21, 3 hours post last treatment of test articles, the vehicle and treatment group are terminated. […] Depth of anesthesia is monitored by toe pinch method. […] Data analysis: The iron mobilization impact of compounds is assessed based on the serum iron level, transferrin saturation and TIBC; the ability of test article to restore normal iron homeostasis and metabolism, and subsequent rescue of anemia, is assessed by comparing the hemoglobin and hematocrit levels of test article treated groups with vehicle treated group. Test articles were evaluated in the described mouse model of turpentine oil (TO)-induced anemia of inflammation (A of I). […]

A short description of data set [2]: Human liver microsomal stability assay. The class given is in vitro ADME. The note with it: human, microsomes. An excerpt:
(§1) Further examples of useful assays include metabolic stability assays, such as but not limited to e.g., liver microsomal clearance assays which provide measurement such as, but not limited to e.g., liver microsomal clearance half-life (t1/2), liver microsomal intrinsic clearance (CLint), and the like. Such measurements are useful in assessing various characteristics of a subject compound, such as e.g., the availability of an intact compound to provide a pharmacological effect. A compound having a longer microsomal clearance half-life (t1/2), e.g., than a reference compound, will provide better exposure of the intact compound and greater availability to produce the relevant pharmacological effect. A compound having a less microsomal clearance, e.g., as measured by liver microsomal intrinsic clearance (CLint), will similarly result in greater exposure of the intact compound available for an increase in the relevant pharmacological effect, e.g., as compared to that of a reference compound with a higher liver microsomal intrinsic clearance (CLint). Other useful assays include in vitro hepatocyte metabolic stability assays.
(§2) Such assessments included human and mouse liver microsomal stability assays as well as 6-hour mouse PK studies.

A short description of data set [3]: Mouse liver microsomal stability assay. The class given is in vitro ADME. Conditions: mouse, microsomes.
Text: as §1, §2
(In general: Microsomes from liver hold many membrane-bound enzymes, among them those of drug oxidation.)

Data set [4] in a line: Mouse 6-hour PK study. Conditions: mouse, in vivo.

Marks after values point to notes of the source that are not given here.

Consider `CC(C)c1ccc(F)c(=O)c(O)c1` [Ex. 1, 7-fluoro-2-hydroxy-4-isopropylcyclohepta-2,4,6-trien-1-one], for which the “levels of Hgb compared with hinokitiol” value in data set [1] is on record as “comparable or higher levels of Hgb than hinokitiol”. In data set [2], the “clearance half-life (t1/2) and intrinsic clearance (CLint) as compared to hinokitiol” value (from here on “clearance half-life … compared to hinokitiol”) is “longer clearance half-life (t1/2) and lower intrinsic clearance (CLint), or both as compared to hinokitiol”; the half-life lay in the range of 0.417 to 0.833 h; the microsomal CLint is 25 to 50 µL/min/mg. In addition, in data set [3], the “clearance half-life … compared to hinokitiol” value is “longer clearance half-life (t1/2) and lower intrinsic clearance (CLint), or both as compared to hinokitiol”; the half-life is over 2.5 h; the microsomal CLint is under 25 µL/min/mg. Besides, in data set [4], the AUC(0-t) fell in the range of 5000 to 20000 ng·h/mL, the Cmax was 5000 to 20000 ng/mL, the half-life fell in the range of 1.25 to 4.99 h and the “mouse 6-hour PK properties as compared to hinokitiol” value is “one or more improved mouse 6-hour PK properties as compared to hinokitiol”.

Regarding `Cc1cccc(F)c(=O)c1O` [Ex. 32, 7-fluoro-2-hydroxy-3-methylcyclohepta-2,4,6-trien-1-one], the “levels of Hgb compared with hinokitiol” value in data set [1] is “comparable or higher levels of Hgb than hinokitiol”. In data set [2], the “clearance half-life … compared to hinokitiol” value is “longer clearance half-life (t1/2) and lower intrinsic clearance (CLint), or both as compared to hinokitiol”; the half-life is over 2.5 h; the microsomal CLint is under 25 µL/min/mg. Further, in data set [3], the “clearance half-life … compared to hinokitiol” value is “longer clearance half-life (t1/2) and lower intrinsic clearance (CLint), or both as compared to hinokitiol”; the half-life is over 2.5 h; the microsomal CLint is under 25 µL/min/mg. For the same molecule, in data set [4], the AUC(0-t) was over 20000 ng·h/mL, the Cmax lay in the range of 5000 to 20000 ng/mL, the half-life lay within 1.25 to 4.99 h and the “mouse 6-hour PK properties as compared to hinokitiol” value is on record as “one or more improved mouse 6-hour PK properties as compared to hinokitiol”.

On to `O=c1ccccc([C@@H]2CCCO2)c1O` (single isomer, unassigned) [Ex. 42], for which, in data set [1], the “levels of Hgb compared with hinokitiol” value was “comparable or higher levels of Hgb than hinokitiol”. In data set [2], the “clearance half-life … compared to hinokitiol” value was “longer clearance half-life (t1/2) and lower intrinsic clearance (CLint), or both as compared to hinokitiol”; the half-life was in the range of 0.833 to 1.67 h; the intrinsic metabolic clearance (microsomal CLint) was under 25 µL/min/mg. In data set [3], the “clearance half-life … compared to hinokitiol” value is “longer clearance half-life (t1/2) and lower intrinsic clearance (CLint), or both as compared to hinokitiol”; the half-life lay in the range of 0.417 to 0.833 h; the microsomal CLint was in the range of 25 to 50 µL/min/mg. Besides, in data set [4], the exposure AUC(0-t) was in the range of 500 to 1500 ng·h/mL, the Cmax is 1500 to 5000 ng/mL, the half-life was under 1.25 h and the “mouse 6-hour PK properties as compared to hinokitiol” value was “one or more improved mouse 6-hour PK properties as compared to hinokitiol”.

On to `O=c1ccc(OC2COC2)ccc1O` [Ex. 12, 2-hydroxy-5-(oxetan-3-yloxy)cyclohepta-2,4,6-trien-1-one], for which, in data set [2], the “Human CLint” value is given as 0.00* μL/min/mg protein; the “Human t1/2” value is “∞*”; the “clearance half-life … compared to hinokitiol” value is “longer clearance half-life (t1/2) and lower intrinsic clearance (CLint), or both as compared to hinokitiol”. Besides, in data set [3], the “Mouse CLint” value is reported as 0.00* μL/min/mg protein; the “Mouse t1/2” value is given as “∞*”; the “clearance half-life … compared to hinokitiol” value is “longer clearance half-life (t1/2) and lower intrinsic clearance (CLint), or both as compared to hinokitiol”. In addition, in data set [4], the AUC(0-t) is under 499 ng·h/mL, the peak concentration (Cmax) is 500 to 1500 ng/mL, the half-life lay within 1.25 to 4.99 h and the “mouse 6-hour PK properties as compared to hinokitiol” value is recorded as “one or more improved mouse 6-hour PK properties as compared to hinokitiol”.
